For assay [1], the system named is Mus musculus. As to the kind of experiment: Blood glucose levels in mice was measured using glucometer after 0 hours of compound administration at 30 mg/kg body weight via oral gavage.
Assay [2] concerns Mus musculus. Briefly: Blood glucose levels in mice was measured using glucometer after 1 hours of compound administration at 30 mg/kg body weight via oral gavage.
Assay [3] relates to Mus musculus. Briefly: Blood glucose levels in mice was measured using glucometer after 2 hours of compound administration at 30 mg/kg body weight via oral gavage.
The test system of assay [4] is Mus musculus. As to the kind of experiment: Blood glucose levels in mice was measured using glucometer after 4 hours of compound administration at 30 mg/kg body weight via oral gavage.
The subject of assay [5] is Mus musculus. Briefly: Blood glucose levels in mice was measured using glucometer after 8 hours of compound administration at 30 mg/kg body weight via oral gavage.

The results in this text go back to ChEMBL document CHEMBL1140399, “Synthesis and evaluation of 3-anilino-quinoxalinones as glycogen phosphorylase inhibitors” (Bioorg Med Chem Lett, 2005).

As to `Cn1c(=O)c(Nc2ccc(C(=O)NCc3cccs3)cc2)nc2ccccc21`, the Blood glucose level came to 334 in assay [1]; 306.4 in assay [2]; 351.3 in assay [3]; 313.3 in assay [4]; 224.9 in assay [5].

Regarding `CCn1c(=O)c(Nc2ccc(C(=O)NCc3cccs3)cc2)nc2ccccc21`, the Blood glucose level in assay [1] stood at 320.3; in assay [2], 349.1; in assay [3], 338.4; in assay [4], 383.3; in assay [5], 325.9.

In the case of `Cn1c(=O)c(Nc2ccc(C(=O)NCc3cccs3)cc2)nc2cccnc21`, the Blood glucose level in assay [1] came to 357.4; in assay [2] it was 305.4; in assay [3], 356; in assay [4], 362.5; in assay [5], 328.4.
